From patent publication US9518052B2, “Pyrazolopyridines and pyrazolopyrimidines” (Pfizer Inc., priority 2014, dated 2016)
Structures can show the parent of a compound that is named as a salt.

Test system: rhIFNγ stimulated STAT-3 phosphorylation in the A549 human epithelial cell line
Experiment: A549 Cell Assay: Inhibition of pSTAT3
Type: cell-based
Settings: A549 cells
Protocol: A549 Cell Assay: Inhibition of pSTAT3
An assay measuring the efficacy of JAK inhibitors on the functional response of recombinant human interferon γ (rhIFNγ) stimulated STAT-3 phosphorylation in the A549 human epithelial cell line.
A549 cells (ATCC #CCL-185), were plated at 30,000 cells/well in 96 well flat bottomed tissue culture plates (BD#353072) in 200 μL of growth medium (DMEM, Pfizer media prep, with 10% Fetal Bovine Serum, Sigma #F4135, 2 mM L-Glutamine, Pfizer media prep, 100 U/mL penicillin, Pfizer media prep, and 200 μg/ml streptomycin, Pfizer media prep), and cultured at 37° C., 5% CO2 incubator for 18 hours. Growth medium was removed by vacuum aspiration (V&P Scientific #vp187 bp-60), and 90 μL of pre-warmed assay medium (DMEM with 0.2% BSA, Miltenyi #130-091-376) was added to each well and incubated for 15 minutes at 37° C. 10 μL of vehicle control or test compound (final concentration range of 0.3 nM to 10 μM with 0.1% DMSO) was added to the cells. Plates were incubated at 37° C. for 1 hour. After compound incubation, 10 μL of 220 ng/mL recombinant human IFNγ (R&D Systems #285-IF, final rhIFNγ concentration of 20 ng/mL) was added to the cells and plates were incubated for 30 minutes at 37° C. Wells containing A549 cells, medium with 0.1% DMSO and no rhIFNγ were used as background controls. After rhIFNγ stimulation, media was aspirated from each well and 35 μL/well of iced-cold MSD lysis buffer containing protease and phosphatase inhibitors from Phospho-STAT3 Tyr705 assay kit (Meso-Scale Discovery #K150DID) was added to each well. Plates were incubated at 4° C. with shaking for 30 minutes. Cell lysates were assayed following the MSD Phospho-STAT3 Tyr705 assay kit protocol to detect pSTAT3.
Data were collected and transformed into percent inhibition and calculated using the following formula: […]

| Compound | IC50 | IC50 (Homo sapiens) |
| --- | --- | --- |
| CCc1cc(O)c(F)cc1-c1cc2[nH]nc(C(=O)NC)c2c(NCc2ccccc2N(CC)S(C)(=O)=O)n1 [Example 9, 6-(2-ethyl-5-fluoro-4-hydroxyphenyl)-4-({2-[ethyl(methylsulfonyl)ami-no]benzyl}amino)-N-methyl-1H-pyrazolo[4,3-c]pyridine-3-carboxamide] | 14.9 nM | – |
| CCc1cc(O)c(F)cc1-c1cc2[nH]nc(C(=O)NC)c2c(NCC2CCCC2)n1 [Example 10, 4-[(cyclopentylmethyl)ami-no]-6-(2-ethyl-5-fluoro-4-hydroxyphenyl)-N-methyl-1H-pyrazolo[4,3-c]pyridine-3-carboxamide] | 26 nM | – |
| CCN(c1ccccc1CNc1nc(-c2cc(F)c(O)cc2CC(F)(F)F)cc2[nH]nc(C(=O)NC)c12)S(C)(=O)=O [Example 12, 4-({2-[ethyl(methylsulfon-yl)amino]benzyl}ami-no)-6-[5-fluoro-4-hydroxy-2-(2,2,2-trifluoroethyl)phenyl]-N-methyl-1H-pyrazolo[4,3-c]pyridine-3-carboxamide] | 44.9 nM | – |
| CCS(=O)(=O)N(C)c1ccccc1CNc1nc(-c2cc(F)c(O)cc2CC(F)(F)F)cc2[nH]nc(C(=O)NC)c12 [Example 13] | 96.7 nM | – |
| CNC(=O)c1n[nH]c2cc(-c3cc(F)c(O)cc3CC(F)(F)F)nc(NCc3cc(F)ccc3N(C)S(C)(=O)=O)c12 [Example 14, 6-[5-fluoro-4-hydroxy-2-(2,2,2-trifluoroethyl)phenyl]-4-({5-fluoro-2-[methyl(methylsulfon-yl)amino]benzyl}ami-no)-N-methyl-1H-pyrazolo[4,3-c]pyridine-3-carboxamide] | 20.7 nM | – |
| CNC(=O)c1n[nH]c2cc(-c3cc(F)c(O)cc3CC(F)(F)F)nc(NCc3c(F)cccc3N(C)S(C)(=O)=O)c12 [Example 18, 6-[5-fluoro-4-hydroxy-2-(2,2,2-trifluoroethyl)phenyl]-4-({2-fluoro-6-[methyl(meth-ylsulfonyl)amino]benz-yl}amino)-N-methyl-1H-pyrazolo[4,3-c]pyridine-3-carboxamide] | 97 nM | – |
| CCc1cc(O)c(F)cc1-c1cc2[nH]nc(C(=O)NC)c2c(NCc2cc(C)ccc2N(C)S(C)(=O)=O)n1 [Example 21, 6-(2-ethyl-5-fluoro-4-hydroxyphenyl)-N-methyl-4-({5-methyl-2-[methyl(methylsulfon-yl)amino]benzyl}ami-no)-1H-pyrazolo[4,3-c]pyridine-3-carboxamide] | 35.6 nM | – |
| CCc1cc(O)c(F)cc1-c1cc2[nH]nc(C(=O)NC)c2c(NCc2ccccc2N(C)S(=O)(=O)c2ccccc2)n1 [Example 22, 6-(2-ethyl-5-fluoro-4-hydroxyphenyl)-N-methyl-4-({2-[methyl(phen-ylsulfonyl)amino]ben-zyl}amino)-1H-pyrazolo[4,3-c]pyridine-3-carboxamide] | 52.8 nM | – |
| CCc1cc(O)c(F)cc1-c1cc2[nH]nc(C(=O)NC)c2c(NCCc2ccc(NS(=O)(=O)c3ccccc3)cc2)n1 [Example 23, 6-(2-ethyl-5-fluoro-4-hydroxyphenyl)-N-methyl-4-[(2-{4-[(phenylsulfonyl)-amino]phenyl}ethyl)ami-no]-1H-pyrazolo[4,3-c]pyridine-3-carboxamide] | 51.4 nM | – |
| CNC(=O)c1n[nH]c2cc(-c3cc(F)c(O)cc3CC(F)(F)F)nc(NCc3ccccc3N(CCO)S(C)(=O)=O)c12 [Example 24, 6-[5-fluoro-4-hydroxy-2-(2,2,2-trifluoroethyl)phenyl]-4-({2-[(2-hydroxyethyl)-(methylsulfonyl)ami-no]benzyl}amino)-N-methyl-1H-pyrazolo[4,3-c]pyridine-3-carboxamide] | 226 nM | – |
| CN(c1ccccc1CNc1nc(-c2cc(F)c(O)cc2CC(F)(F)F)cc2[nH]nc(C(N)=O)c12)S(=O)(=O)c1ccccc1 [Example 26, 6-[5-fluoro-4-hydroxy-2-(2,2,2-trifluoroethyl)phenyl]-4-({2-[methyl(phen-ylsulfonyl)amino]ben-zyl}amino)-1H-pyrazolo[4,3-c]pyridine-3-carboxamide] | 124 nM | – |
| CS(=O)(=O)N(CCO)c1ccccc1CNc1nc(-c2cc(F)c(O)cc2CC(F)(F)F)cc2[nH]nc(C(N)=O)c12 [Example 27, 6-[5-fluoro-4-hydroxy-2-(2,2,2-trifluoroethyl)phenyl]-4-({2-[(2-hydroxyethyl)(methylsul-fonyl)amino]benzyl}amino)-1H-pyrazolo[4,3-c]pyridine-3-carboxamide] | 874 nM | – |
| CNC(=O)c1n[nH]c2cc(-c3cc(F)c(O)cc3CC(F)(F)F)nc(NCc3ccc(O)cc3N(C)S(C)(=O)=O)c12 [Example 33, 6-[5-fluoro-4-hydroxy-2-(2,2,2-trifluoroethyl)phenyl]-4-({4-hydroxy-2-[methyl(methylsulfon-yl)amino]benzyl}amino)-N-methyl-1H-pyrazolo[4,3-c]pyridine-3-carboxamide] | 490 nM | – |
| CNC(=O)c1n[nH]c2cc(-c3cc(F)c(O)cc3CC(F)(F)F)nc(NCc3cc(O)ccc3N(C)S(=O)(=O)c3ccccc3)c12 [Example 35, 6-[5-fluoro-4-hydroxy-2-(2,2,2-trifluoroethyl)phenyl]-4-({5-hydroxy-2-[methyl(phenylsulfon-yl)amino]benzyl}amino)-N-methyl-1H-pyrazolo[4,3-c]pyridine-3-carboxamide] | 437 nM | – |
| CN(c1cc(O)ccc1CNc1nc(-c2cc(F)c(O)cc2CC(F)(F)F)cc2[nH]nc(C(N)=O)c12)S(C)(=O)=O [Example 41, 6-[5-Fluoro-4-hydroxy-2-(2,2,2-trifluoroethyl)phenyl]-4-({4-hydroxy-2-[methyl(methylsulfonyl)amino]benzyl}amino)-1H-pyrazolo[4,3-c]pyridine-3-carboxamide] | – | 1180 nM |
| CNC(=O)c1n[nH]c2cc(-c3cc(F)c(O)cc3CC(F)(F)F)nc(NCc3cc(O)ccc3N(C)S(=O)(=O)c3cccnc3)c12 [Example 54, 6-[5-fluoro-4-hydroxy-2-(2,2,2-trifluoroethyl)phenyl]-4-({5-hydroxy-2-[methyl(pyridin-3-ylsulfonyl)amino]ben-zyl}amino)-N-methyl-1H-pyrazolo[4,3-c]pyridine-3-carboxamide] | 135 nM | – |
| CN(c1ccc(O)cc1CNc1nc(-c2cc(F)c(O)cc2CC(F)(F)F)cc2[nH]nc(C(=O)Nc3ccc(NCCO)nc3)c12)S(C)(=O)=O [Example 75, 6-[5-Fluoro-4-hydroxy-2-(2,2,2-trifluoroethyl)phenyl]-N-{6-[(2-hydroxyethyl)amino]pyridin-3-yl}-4-({5-hydroxy-2-[methyl(methylsulfonyl)amino]benzyl}amino)-1H-pyrazolo[4,3-c]pyridine-3-carboxamide] | – | 1350 nM |
| Cc1cnc(N(C)S(C)(=O)=O)c(CNc2nc(-c3cc(F)c(O)cc3CC(F)(F)F)cc3[nH]nc(C(N)=O)c23)c1 [Example 86, 6-(5-fluoro-4-hydroxy-2-(2,2,2-trifluoroethyl)phenyl)-4-(((5-methyl-2-(N-methylmethylsulfonam-ido)pyridin-3-yl)methyl)amino)-1H-pyrazolo[4,3-c]pyridine-3-carboxamide] | 425 nM | – |
| CN(c1ccc(O)cc1CNc1nc(-c2cc(F)c(O)cc2CC(F)(F)F)nc2[nH]nc(C(N)=O)c12)S(C)(=O)=O [Example 97, 6-(5-Fluoro-4-hydroxy-2-(2,2,2-trifluoroethyl)phenyl)-4-((5-hydroxy-2-(N-methylmethylsulfonamido)benzyl)amino)-1H-pyrazolo[3,4-d]pyrimidine-3-carboxamide] | – | 2070 nM |
| CNC(=O)c1n[nH]c2nc(-c3cc(F)c(O)cc3CC(F)(F)F)nc(NCc3nccnc3N(C)S(C)(=O)=O)c12 [Example 100, 6-(5-Fluoro-4-hydroxy-2-(2,2,2-trifluoroethyl)phenyl)-N-methyl-4-(((3-(N-methylmethyl-sulfonamido)pyrazin-2-yl)methyl)amino)-1H-pyrazolo[3,4-d]pyrimidine-3-carboxamide] | – | 6880 nM |
| CNC(=O)c1n[nH]c2nc(-c3cc(F)c(O)cc3CC(F)(F)F)nc(NCc3ccccc3N(CCO)S(C)(=O)=O)c12 [Example 102, 6-(5-fluoro-4-hydroxy-2-(2,2,2-trifluoroethyl)phenyl)-4-((2-(N-(2-hydroxyethyl)methylsulfonamido)benzyl)amino)-N-methyl-1H-pyrazolo[3,4-d]pyrimidine-3-carboxamide] | – | 3360 nM |
| CCN(c1ccc(O)cc1CNc1nc(-c2cc(F)c(O)cc2CC(F)(F)F)nc2[nH]nc(C(=O)NC)c12)S(=O)(=O)c1ccccc1 [Example 105, 4-((2-(N-Ethylphenylsulfonamido)-5-hydroxybenzyl)amino)-6-(5-fluoro-4-hydroxy-2-(2,2,2-trifluoroethyl)phenyl)-N-methyl-1H-pyrazolo[3,4-d]pyrimidine-3-carboxamide] | – | 7020 nM |
| CCc1cc(O)c(F)cc1-c1cc2[nH]ncc2c(N(CCc2ccc(NS(C)(=O)=O)cc2)Cc2ccccc2N(C)S(C)(=O)=O)n1 [Example 130, N-[2-({[6-(2-ethyl-5-fluoro-4-hydroxyphenyl)-1H-pyrazolo[4,3-c]pyridin-4-yl](2-{4-[(methylsulfon-yl)amino]phenyl}ethyl)amino}methyl)phenyl]-N-methylmethanesulfonamide hydrochloride] | 729 nM | – |
